Measurements from article PMC6533912 (Journal of medicinal chemistry, 2018).

Experiments:
[1] = biological target: T1, human 5-HT2CR (unedited INI isoform) (Homo sapiens, UniProt P28335); assay: 5-HT-induced Cai2+ release assay in live h5-HT2CR-CHO cells; assay type: cell-based; conditions: for allosteric modulator (PAM/NAM) activity on 5-HT-induced Cai2+ release, in words: 1 nM test compound
T1 sequence (P28335 33-458): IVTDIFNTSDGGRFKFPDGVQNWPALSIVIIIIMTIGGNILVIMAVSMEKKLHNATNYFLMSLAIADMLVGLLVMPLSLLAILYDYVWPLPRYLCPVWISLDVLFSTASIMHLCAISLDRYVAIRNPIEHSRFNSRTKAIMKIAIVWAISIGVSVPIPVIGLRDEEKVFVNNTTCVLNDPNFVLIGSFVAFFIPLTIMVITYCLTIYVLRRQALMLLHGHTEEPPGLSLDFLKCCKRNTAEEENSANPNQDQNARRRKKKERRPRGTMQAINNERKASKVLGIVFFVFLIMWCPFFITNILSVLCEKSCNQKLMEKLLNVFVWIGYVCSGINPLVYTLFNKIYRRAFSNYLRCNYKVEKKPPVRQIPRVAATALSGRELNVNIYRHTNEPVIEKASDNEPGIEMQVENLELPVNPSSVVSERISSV

[2] = biological target: T2, dopamine receptor D4 (Homo sapiens, UniProt P21917); assay: NIMH PDSP radioligand displacement; conditions: read-out: % inhib (10 μm)
T2 sequence (P21917 1-419): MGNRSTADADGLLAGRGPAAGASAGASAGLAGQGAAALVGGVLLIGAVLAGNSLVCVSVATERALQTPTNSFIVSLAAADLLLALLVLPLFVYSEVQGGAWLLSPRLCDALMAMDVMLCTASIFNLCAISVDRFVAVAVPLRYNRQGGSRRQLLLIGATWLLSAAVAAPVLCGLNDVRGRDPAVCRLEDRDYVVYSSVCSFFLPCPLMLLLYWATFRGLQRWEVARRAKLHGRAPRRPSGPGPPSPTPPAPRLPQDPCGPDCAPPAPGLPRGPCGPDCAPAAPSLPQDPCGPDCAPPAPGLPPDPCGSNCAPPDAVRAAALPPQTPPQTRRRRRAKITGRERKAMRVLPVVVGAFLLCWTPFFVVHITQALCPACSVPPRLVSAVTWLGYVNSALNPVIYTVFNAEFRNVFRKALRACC

[3] = system: male Sprague–Dawley rats; assay: Spontaneous locomotor activity; assay type: in vivo; conditions: rat
[4] = biological target: T3, human 5-HT2AR (Homo sapiens, UniProt P28223); assay: 5-HT-evoked Cai2+ release assay in live h5-HT2AR-CHO cells; assay type: cell-based; conditions: 1 pM, 1 nM, 1 μM
T3 sequence (P28223 whole entry): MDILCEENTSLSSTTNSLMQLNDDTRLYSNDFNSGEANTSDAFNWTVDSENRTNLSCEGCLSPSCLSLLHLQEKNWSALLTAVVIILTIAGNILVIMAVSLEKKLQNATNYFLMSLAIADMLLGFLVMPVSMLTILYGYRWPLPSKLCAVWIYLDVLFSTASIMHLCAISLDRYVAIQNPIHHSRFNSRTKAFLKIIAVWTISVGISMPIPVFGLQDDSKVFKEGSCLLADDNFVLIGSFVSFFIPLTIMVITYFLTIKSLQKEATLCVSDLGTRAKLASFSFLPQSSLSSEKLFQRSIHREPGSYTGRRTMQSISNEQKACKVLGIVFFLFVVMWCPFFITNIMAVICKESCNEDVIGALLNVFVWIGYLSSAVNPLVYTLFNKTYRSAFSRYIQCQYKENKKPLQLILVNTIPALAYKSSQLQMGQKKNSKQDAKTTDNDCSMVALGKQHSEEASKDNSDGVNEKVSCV

[5] = biological target: 5-HT1BR (Homo sapiens, UniProt P28222); assay: NIMH PDSP radioligand displacement; conditions: read-out: % inhib (10 μm)
5-HT1BR, sequence (P28222 whole entry): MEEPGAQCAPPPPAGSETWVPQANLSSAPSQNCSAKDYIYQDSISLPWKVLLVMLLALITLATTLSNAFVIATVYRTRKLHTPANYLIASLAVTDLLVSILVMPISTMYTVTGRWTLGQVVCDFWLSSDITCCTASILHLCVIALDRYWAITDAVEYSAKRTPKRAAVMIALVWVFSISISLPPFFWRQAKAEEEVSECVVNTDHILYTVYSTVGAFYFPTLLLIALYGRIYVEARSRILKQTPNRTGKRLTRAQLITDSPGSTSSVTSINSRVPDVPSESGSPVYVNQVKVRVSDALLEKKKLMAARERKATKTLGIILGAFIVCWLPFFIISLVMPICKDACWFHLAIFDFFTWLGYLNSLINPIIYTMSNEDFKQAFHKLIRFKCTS

[6] = system: male Sprague–Dawley rats; assay: Cocaine self-administration cue reactivity test; assay type: in vivo; conditions: 1 mg/kg ip, rat
[7] = biological target: norepinephrine transporter (NET) (Homo sapiens, UniProt P23975); assay: NIMH PDSP radioligand displacement; conditions: 10 μM
norepinephrine transporter (NET), sequence (P23975 whole entry, species assumed): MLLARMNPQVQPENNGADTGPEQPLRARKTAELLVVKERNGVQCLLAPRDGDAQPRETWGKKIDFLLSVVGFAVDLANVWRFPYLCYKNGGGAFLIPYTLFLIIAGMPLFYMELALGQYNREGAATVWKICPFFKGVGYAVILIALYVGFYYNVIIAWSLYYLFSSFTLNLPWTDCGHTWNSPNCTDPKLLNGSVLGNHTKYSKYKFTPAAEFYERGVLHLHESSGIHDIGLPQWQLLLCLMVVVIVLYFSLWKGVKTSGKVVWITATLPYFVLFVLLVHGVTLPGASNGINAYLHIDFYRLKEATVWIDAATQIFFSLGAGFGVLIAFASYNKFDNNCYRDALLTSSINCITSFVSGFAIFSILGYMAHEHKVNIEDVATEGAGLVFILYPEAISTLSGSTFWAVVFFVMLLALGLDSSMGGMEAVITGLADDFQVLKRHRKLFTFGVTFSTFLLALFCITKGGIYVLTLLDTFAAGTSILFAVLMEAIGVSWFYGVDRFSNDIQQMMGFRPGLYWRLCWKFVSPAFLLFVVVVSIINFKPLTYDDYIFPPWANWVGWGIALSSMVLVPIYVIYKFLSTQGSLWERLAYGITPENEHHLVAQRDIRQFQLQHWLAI

[8] = system: male Sprague–Dawley rats; assay: WAY163909 vs saline drug discrimination assay; assay type: in vivo
[9] = biological target: T1, human 5-HT2CR (unedited INI isoform); conditions: cited from earlier work
[10] = biological target: T3, human 5-HT2AR; conditions: cited from earlier work

## CCCCCCCCCCC[C@@H]1CCN[C@H](C(=O)NC[C@@H](O)CO)C1 (mixture of isomers) [Compound 16a, cis-N-((R)-2,3-Dihydroxypropyl)-4-undecylpiperidine-2-carboxamide]
[1]
  allosteric modulator (PAM/NAM) activity on 5-HT-induced Cai2+ release, in words: lacked appreciable PAM activity

## CCCCCCCCCCC[C@@H]1CCN[C@H](C(=O)NC[C@H](O)CO)C1 (mixture of isomers) [Compound 16b, cis-N-((S)-2,3-Dihydroxypropyl)-4-undecylpiperidine-2-carboxamide]
[1]
  allosteric modulator (PAM/NAM) activity on 5-HT-induced Cai2+ release, in words: displayed significant PAM activity

## CCCCCCCCCCC[C@@H]1CCN[C@H](C(=O)NCCO)C1 (relative stereo) [Compound 8, cis-N-(2-Hydroxyethyl)-4-undecylpiperidine-2-carboxamide]
[1]
  allosteric modulator (PAM/NAM) activity on 5-HT-induced Cai2+ release, in words: no significant PAM activity

## CCCCCCCCCCC[C@@H]1CCN[C@H](C(=O)NCC(O)CO)C1 (relative stereo) [Compound 16, cis-4-Undecylpiperidine-2-carboxylic Acid (2,3-Dihydroxypropyl)amide]
[2]
  inhibition at 10 µM: -14.2%
[3]; 1 mg/kg ip
  ambulations: not associated with suppressed ambulations
[3]; 5 mg/kg ip
  mean total ambulations in 30 min vs saline: significantly reduced mean total ambulations
  mean total vertical activity in 30 min vs saline: significantly reduced mean total vertical activity
[4]
  change in 5-HT Emax or EC50 at the 5-HT2AR: no change in the 5-HT Emax or EC50
[5]
  inhibition at 10 µM: -18.1%
[1]; 1 pM, 1 nM, 1 μM
  effect on 5-HT potency (leftward shift of 5-HT curve): did not impact 5-HT potency
  shift of 5-HT-evoked Cai2+ release concentration-response curve: upward shift of 5-HT-evoked Cai^2+ release at multiple concentrations
[1]
  allosteric modulator (PAM/NAM) activity on 5-HT-induced Cai2+ release, in words: significant PAM activity
[1]; 1 nM, compound alone
  intrinsic agonist efficacy to induce Cai2+ release in the absence of 5-HT: did not stimulate Cai^2+ release
[6]; 15 min before cue reactivity session
  previously active lever presses reinforced by the discrete cue complex vs saline: significantly lower
[6]
  inactive lever presses vs saline: did not significantly alter inactive lever presses
[7]
  displacement of radioligand binding: did not displace binding
[8]; 0.125–1.0 mg/kg ip, given alone
  substitution for the WAY163909 stimulus, in words: partially substituted for WAY163909

## CCCCCCCCCCC[C@@H]1CCN[C@H](C(=O)N[C@@H]([C@H]2O[C@H](SC)[C@H](O)[C@@H](O)[C@H]2O)[C@H](C)Cl)C1.Cl [Compound 1]
[9]; 1 nM, previous titration studies
  shift of the 5-HT-evoked Cai2+ response curve: leftward shift of the 5-HT-evoked Cai^2+ response curve
[9]
  intrinsic agonist activity at the 5-HT2CR: no intrinsic agonist activity
[10]
  intrinsic agonist activity at the 5-HT2AR: no intrinsic agonist activity

## CCCCCCCCCCC[C@@H]1CCN[C@H](C(=O)O)C1 [Compound 7, (cis-2,4)-4-Undecylpiperidine-2-carboxylic acid]
[1]
  allosteric modulator (PAM/NAM) activity on 5-HT-induced Cai2+ release, in words: no significant PAM activity

## c1cc2c3c(c1)[C@H]1CCC[C@H]1N3CCNC2 [WAY163909, (7b-R,10a-R)-1,2,3,4,8,9,10,10a-octahydro-7bH-cyclopenta[b][1,4]diazepino[6,7,1hi]indole]
[8]; 0.5 mg/kg ip, given alone
  WAY163909-appropriate responding: ~30%
[8]; ip, rats trained on WAY163909 0.75 mg/kg vs saline, log-probit
  dose predicted to elicit 50% of WAY163909-lever responding (ED50): 0.53 mg/kg
[8]; training dose 0.75 mg/kg ip
  WAY163909-appropriate responding: Greater than 95%
